According to paper PMC7091366 (Archives of Pharmacal Research, 2014):
≈ marks a conversion by molar mass, not a printed value. Entries after “also recorded” stand apart in the source; their conditions may differ.

Legend:
[1] = Cell viability; assay type: cell-based, baby hamster; settings: hamster, BHK-21 cells, CC50, BHK-21 cells, MTT
[2] = tested on: Japanese encephalitis virus (JEV) strain T1P1; assay: JEV plaque reduction assay in BHK-21 cells; assay type: cell-based; settings: JEV 100 pfu, BHK-21 monolayer, plaques after 3 days
[3] = tested on: Japanese encephalitis virus (JEV); assay: Quantitative assay of JEV yields by real-time RT-PCR; assay type: cell-based; settings: for Ct (real-time RT-PCR of JEV RNA in supernatant) / ΔCt (Ct experimental − Ct control) / Reduction in virus RNA loads: 10 μg/ml; for Ct (real-time RT-PCR of JEV RNA in supernatant) / ΔCt (Ct experimental − Ct control): JEV MOI 1, BHK-21 cells, 72 h; for Reduction in virus RNA loads: supernatant of infected BHK-21 cells, three days post infection; for inhibition at 10 µg/mL: Japanese encephalitis virus, BHK-21, read-out: Inhibition of JEV yields
[4] = tested on: GAS-driven promoter (pGAS-Luc) in BHK-21 cells; assay: GAS-driven promoter dual-luciferase reporter assay; assay type: cell-based, baby hamster; settings: 10 μg/ml, 4 h, versus untreated cells
[5] = tested on: BHK-21 cells; assay: Cell viability; assay type: cell-based, baby hamster; settings: 72 h, MTT

O=C1c2cccc(O)c2C(=O)c2c(O)cc(CO)cc21 [Aloe-emodin]
CC50 at 72 h [1]: 20.2 ± 1.01 µg/mL (≈ 74.7 µM)
IC50 (JEV plaque reduction) [2]: 17.39 ± 0.58 µg/mL (≈ 64.4 µM)
Ct (real-time RT-PCR of JEV RNA in supernatant) [3]: 32.25
ΔCt (Ct experimental − Ct control) [3]: 6.72
Reduction in virus RNA loads [3]: more than 1 log
inhibition at 10 µg/mL [3]: 90%
Activity of GAS-driven promoter (relative firefly luciferase) ([4]; listed as aloe emodin): significantly activated
Activity of GAS-driven promoter (relative firefly luciferase) ([4]; listed as aloe-emodin): significantly increased

Cc1cc(O)c2c(c1)C(=O)c1cccc(O)c1C2=O [Chrysophanol]
CC50 at 72 h [1]: 18.2 ± 5.53 µg/mL (≈ 71.5 µM)
IC50 (JEV plaque reduction) [2]: 15.82 ± 2.62 µg/mL (≈ 62.2 µM)
Ct (real-time RT-PCR of JEV RNA in supernatant) [3]: 29.26
ΔCt (Ct experimental − Ct control) [3]: 3.73
Reduction in virus RNA loads [3]: more than 1 log
inhibition at 10 µg/mL [3]: 90%
Activity of GAS-driven promoter (relative firefly luciferase) [4]: significantly activated; also recorded: significantly increased

Cc1cc(O)c2c(c1)C(=O)c1cc(O)cc(O)c1C2=O [Emodin]
CC50 [5]: 5.49 ± 1.82 µg/mL (≈ 20.3 µM)

COc1cc(O)c2c(c1)C(=O)c1cc(C)cc(O)c1C2=O [Physcion]
CC50 at 72 h [1]: 20.7 ± 4.66 µg/mL (≈ 72.8 µM)
